Assays:
Mus musculus [1] = species on record: Mus musculus; assay: Inhibitory activity derived from Anastatica hierochuntica on D-Gal-induced cytotoxicity in primary cultured mouse hepatocytes at a concentration of 0 uM; type: functional, Hepatocyte
Mus musculus [2] = species on record: Mus musculus; assay: Inhibitory activity derived from Anastatica hierochuntica on D-Gal-induced cytotoxicity in primary cultured mouse hepatocytes at a concentration of 3 uM; type: functional; settings: Hepatocyte
Mus musculus [3] = species on record: Mus musculus; assay: Inhibitory activity derived from Anastatica hierochuntica on D-Gal-induced cytotoxicity in primary cultured mouse hepatocytes at a concentration of 30 uM; type: functional; settings: Hepatocyte
Mus musculus [4] = species on record: Mus musculus; assay: Inhibitory activity derived from Anastatica hierochuntica on D-Gal-induced cytotoxicity in primary cultured mouse hepatocytes at a concentration of 10 uM; type: functional; settings: Hepatocyte

SMILES	Inhibition (Mus musculus [1])	inhibition at 3 µM (Mus musculus [2])	inhibition at 30 µM (Mus musculus [3])	inhibition at 10 µM (Mus musculus [4])
O=C1c2c(O)cc(O)cc2O[C@H](c2ccc(O)c(O)c2)[C@H]1O [(+)-TAXIFOLIN]	0%	9.6%	13%	11.7%
O=C1C[C@@H](c2ccc(O)cc2)Oc2cc(O)cc(O)c21 [NARINGENIN]	0%	2.9%	43.1%	9.3%
O=C1C[C@@H](c2ccc(O)cc2)Oc2c1c(O)cc1oc3cc(O)c(O)cc3c21 [ANASTATIN B]	0%	28.6%	55%	40.5%
O=C1c2c(O)cc(O)cc2O[C@@H](c2ccc(O)c(O)c2)[C@H]1O [(+)-EPITAXIFOLIN]	0%	2.1%	21.7%	11%
O=C1C[C@@H](c2ccc(O)cc2)Oc2cc3oc4cc(O)c(O)cc4c3c(O)c21 [ANASTATIN A]	0%	17.2%	46.2%	31.5%
O=C1C[C@@H](c2ccc(O)c(O)c2)Oc2cc(O)cc(O)c21 [ERIODICTYOL]	0%	5.9%	27.3%	8.3%
O=C1c2c(O)cc(O)cc2O[C@H](c2ccc(O)cc2)[C@H]1O [DIHYDROKAEMPFEROL]	0%	7.8%	33.2%	14.2%
COc1cc([C@H]2Oc3cc(O)cc(O)c3C(=O)[C@@H]2O)ccc1O	0%	4%	36.7%	7.3%
COc1cc(C2Oc3cc([C@H]4Oc5cc(O)cc(O)c5C(=O)[C@@H]4O)ccc3OC2CO)ccc1O (stereo partly specified) [SILIBININ]	0%	4.8%	45.2%	7.7%
